Laboratory results: patent publication EP0364581A1, “METHOD OF STERILIZING PLANT POLLEN” (VSESOJUZNY NAUCHNO-ISSLEDOVATELSKY INST. SELSKOKHOZYAISTV. …, priority 1988, dated 1989)

What was measured:
Assay in all cases: field test of gametocidal activity (sterilisation of anthers)
Assay type in all cases: in vivo
[1] = system: Hirse Sorte K-9693 Kormovoe I; conditions: V. Periode, 1%ige wäßrige Emulsion, 8 kg/ha; for Prozentsatz des Ansetzens der Körner bei freier Bestäubung: control = 100
Text: (§1) Die gametozide Aktivität der erfindungsgemäßen Sterilisationsmittel war in Feldversuch in verschiedenen bodenklimatischen Zonen mit Teilstücken von 10 m^2 Größe in drei-- bis viermaliger Wiederholung nachgewiesen. Jedes Sterilisationsmittel wurde mindestens 5 Jahre lang geprüft.
(§2) Die Entwicklung der Perioden der Organogenese wird zytologisch überwacht. Die Behandlung von Pflanzen mit dem Sterilisationsmittel erfolgt am Anfang der fünften Periode der Organogenese nach Kupermann.
(§3) Mit dem Ahrenschieben verwirklicht man die Isolierung von Hauptähren und anderen Stockwerken in Pergamentbeuteln. Bei Weizen und Tritikale werden Einzelisolatoren verwendet. Bei Roggen schließt man je 1 Ähre von 5 bis 7 verschiedenen nebeneinander befindlichen Pflanzen in einen gemeinsamen Isolator ein. Bei Hirse wird jede Rispe getrennt isoliert. Der Sterilitätsprozentsatz (X) für Weizen, Roggen, Tritikale und Hirse wird nach der Formel [formula]
(§4) Samen von unbehandelten Kontrollpflanzen ermittelt.
(§5) Die Kornzahl in nicht isolierten Ähren von Kontrollpflanzen wird bedingt für 100% Ansetzen bei freier Bestäubung angenommen.
(§6) Um zuverlässige Angaben zu erhalten, verwendet man 20 bis 25 Isolatoren jeder Wiederholung für Weizen und Tritikale, 10 bis 15 Isolatoren jeder Wiederholung für Roggen und Hirse.
Pflanzen der Hirse Sorte K-9693 Kormovoe I werden in der V. Periode der Organogenese (nach Kupermann) mit einer 1%igen wäßrigen Emulsion von Ammoniumsalz der 2-Methyl-3-zyklo- nexenkarbonsäure, Phthalsäuredipropylester, Phthalsäuredibutylester, Phthalsäurediisobutylester, 2-Methyl-3-zyklo- hexenkarbonsäuremethylester, Phthalsäuredihexylester behandelt. Die Emulsion enthält 0,01 Masse% Dodezylsulfat und 0,1 Masse% C12-C14-Kalziumalkylbenzolsulfonat. Der Verbrauch an Präparat beträgt 8 kg/ha. Als Kontrolle dienen Pflanzen, behandelt mit einem Verdünner ohne Sterilisationsmittel. Die Prüfergebnisse sind in der Tabelle 18 angeführt. […] Periode der Organogenese erhalten.

[2] = system: diploidem Roggen Sorte Voskhod 2; conditions: V. Periode, 1%ige wäßrige Emulsion, 10 kg/ha; for Prozentsatz des Ansetzens der Körner bei freier Bestäubung: control = 100
Text: as §1, §2, §3, §4, §5, §6
Pflanzen von diploidem Roggen Sorte Voskhod 2 werden in der V. Periode der Organogenese (nach Kupermann) mit einer l%igen wäßrigen Emulsion von Phthalsäurediäthylester, Phthalsaurediisobutylester, Kaliumsalz der 2-Methyl-3-zyklohexen- karbonsäure, Ammoniumsalz der 2-Methyl-3-zyklohexenkarbon- säure, 2-Methyl-3-zyklohexenkarbonsäuremethylester, Phthalsaurediallylester behandelt.
Die Emulsion enthält 0,01 Masse% Dodezylsulfat und 0,1 Masse% C12-C14-Kalziumalkylbenzolsulfonat. Der Verbrauch an Präparat beträgt 10 kg/ha, Als Kontrolle dienen Pflanzen, behandelt mit einem Verdünner ohne Sterilisationsmittel.

[3] = system: diploidem Roggen Sorte Kharkovskaya 55; conditions: V. und VI. Periode, 1%ige wäßrige Emulsion, 6 kp/ha; for Prozentsatz des Ansetzens der Körner bei freier Bestäubung: control = 100
Text: as §1, §2, §3, §4, §5, §6
Pflanzen von diploidem Roggen Sorte Kharkovskaya 55 werden in der V. und VI. Periode der Organogenese (nach Kupermann) mit einer 1%igen wäßrigen Emulsion von Phthalsäuredibutylester, Phthalsäurediisobutylester, Phthalsäurediallylester, Phthalsäuredihexylester, 2-Methyl-3-zyklohexen- karbonsäuremethylester, Natriumsalz der 2-Methyl-3-zyklohex- enkarbonsäure behandelt. Die Emulsion enthält 0,01 Masse% Dimethylformamid und 0,1 Masse% C12C14-Kalziumalkylbenzolsulfonat.
Der Verbrauch an Präparat beträgt 6 kp/ha. Als Kontrolle dienen Pflanzen, benandelt mit einem Verdünner ohne Sterilisationsmittel.

CCCOC(=O)c1ccccc1C(=O)OCCC [Beispiel 98, Phthalsäuredipropylester]
Kornzahl der Rispe bei freier Bestäubung [1]: 130,7 | Kornzahl der Rispe im Isolator [1]: 0,0 | Prozentsatz der Sterilität [1]: 100,0% | Prozentsatz des Ansetzens der Körner bei freier Bestäubung [1]: 89,1%

CCCCCCOC(=O)c1ccccc1C(=O)OCCCCCC [Beispiel 102, Phthalsäuredihexylester]
Kornzahl der Rispe bei freier Bestäubung [1]: 136,6 | Kornzahl der Rispe im Isolator [1]: 0,0 | Prozentsatz der Sterilität [1]: 100,0% | Prozentsatz des Ansetzens der Körner bei freier Bestäubung [1]: 93,1%

CC1C=CCCC1C(=O)O.N (centres unmarked) [Beispiel 97, Ammoniumsalz der 2-Methyl-3-zyklo-nexenkarbonsäure]
Kornzahl der Rispe bei freier Bestäubung [1]: 121,6 | Kornzahl der Rispe im Isolator [1]: 0,0 | Prozentsatz der Sterilität [1]: 100,0% | Prozentsatz des Ansetzens der Körner bei freier Bestäubung [1]: 82,9%

COC(=O)C1CCC=CC1C (centres unmarked) [Beispiel 80, 2-Methyl-3-zyklohexenkarbonsäuremethylester]
Kornzahl der Ähre bei freier Bestäubung [2]: 50,2 | Kornzahl der Ähre im Isolator [2]: 0,0 | Prozentsatz der Sterilität [2]: 100,0% | Prozentsatz des Ansetzens der Körner bei freier Bestäubung [2]: 91,9%

CC1C=CCCC1C(=O)O (centres unmarked) [Beispiel 78, Kaliumsalz der 2-Methyl-3-zyklohexen-karbonsäure]
Kornzahl der Ähre bei freier Bestäubung [2]: 52,2 | Kornzahl der Ähre im Isolator [2]: 0,1 | Prozentsatz der Sterilität [2]: 99,8% | Prozentsatz des Ansetzens der Körner bei freier Bestäubung [2]: 95,6%

CC(C)COC(=O)c1ccccc1C(=O)OCC(C)C [Beispiel 77, Phthalsaurediisobutylester]
Kornzahl der Ähre bei freier Bestäubung [2]: 52,8 | Kornzahl der Ähre im Isolator [2]: 0,0 | Prozentsatz der Sterilität [2]: 100,0% | Prozentsatz des Ansetzens der Körner bei freier Bestäubung [2]: 96,7%

C=CCOC(=O)c1ccccc1C(=O)OCC=C [Beispiel 70, Phthalsäurediallylester]
Kornzahl der Ähre bei freier Bestäubung [3]: 51,2 | Kornzahl der Ähre im Isolator [3]: 0,1 | Prozentsatz der Sterilität [3]: 99,8% | Prozentsatz des Ansetzens der Körner bei freier Bestäubung [3]: 97,7%

CCCCCCOC(=O)c1ccccc1C(=O)OCCCCCC [Beispiel 71, Phthalsäuredihexylester]
Kornzahl der Ähre bei freier Bestäubung [3]: 49,7 | Kornzahl der Ähre im Isolator [3]: 0,0 | Prozentsatz der Sterilität [3]: 100,0% | Prozentsatz des Ansetzens der Körner bei freier Bestäubung [3]: 94,8%

COC(=O)C1CCC=CC1C (centres unmarked) [Beispiel 72, 2-Methyl-3-zyklohexen-karbonsäuremethylester]
Kornzahl der Ähre bei freier Bestäubung [3]: 48,0 | Kornzahl der Ähre im Isolator [3]: 0,0 | Prozentsatz der Sterilität [3]: 100,0% | Prozentsatz des Ansetzens der Körner bei freier Bestäubung [3]: 91,6%

CCOC(=O)c1ccccc1C(=O)OCC [Beispiel 76, Phthalsäurediäthylester]
Kornzahl der Ähre bei freier Bestäubung [2]: 53,4 | Kornzahl der Ähre im Isolator [2]: 0,2 | Prozentsatz der Sterilität [2]: 99,6% | Prozentsatz des Ansetzens der Körner bei freier Bestäubung [2]: 97,8%

CCCCOC(=O)c1ccccc1C(=O)OCCCC [Beispiel 68, Phthalsäuredibutylester]
Kornzahl der Ähre bei freier Bestäubung [3]: 48,6 | Kornzahl der Ähre im Isolator [3]: 0,0 | Prozentsatz der Sterilität [3]: 100,0% | Prozentsatz des Ansetzens der Körner bei freier Bestäubung [3]: 92,7%

C=CCOC(=O)c1ccccc1C(=O)OCC=C [Beispiel 81, Phthalsaurediallylester]
Kornzahl der Ähre bei freier Bestäubung [2]: 53,5 | Kornzahl der Ähre im Isolator [2]: 0,8 | Prozentsatz der Sterilität [2]: 98,4% | Prozentsatz des Ansetzens der Körner bei freier Bestäubung [2]: 97,9%

CC1C=CCCC1C(=O)O (centres unmarked) [Beispiel 79, Ammoniumsalz der 2-Methyl-3-zyklohexenkarbon-säure]
Kornzahl der Ähre bei freier Bestäubung [2]: 51,7 | Kornzahl der Ähre im Isolator [2]: 0,0 | Prozentsatz der Sterilität [2]: 100,0% | Prozentsatz des Ansetzens der Körner bei freier Bestäubung [2]: 95,0%

CC(C)COC(=O)c1ccccc1C(=O)OCC(C)C [Beispiel 69, Phthalsäurediisobutylester]
Kornzahl der Ähre bei freier Bestäubung [3]: 50,8 | Kornzahl der Ähre im Isolator [3]: 0,2 | Prozentsatz der Sterilität [3]: 99,6% | Prozentsatz des Ansetzens der Körner bei freier Bestäubung [3]: 96,9%
